This note sets out measurements from ChEMBL document CHEMBL5365493 (J Med Chem, 2023).

Series [1] has as its target Dipeptidyl peptidase 9 (Homo sapiens, UniProt Q86TI2). Kind of series: Inhibition of N-terminal human recombinant DPP9 expressed in Sf9 insect cells using Ala-Pro-paranitroanilide as substrate incubated for 15 mins by […].
Series [2] can be described thus: AUC(0 to end) in Wistar rat at 20 mg/kg, po measured upto 24 hrs by LC/MS-MS analysis. It is filed as ADME, organism-based. Set-up: time < 24 hrs, dose 20 mg/kg, route po. The note with it: in vivo.
The target of series [3] is Dipeptidyl peptidase 2 (Homo sapiens, UniProt Q9UHL4). Kind of series: Inhibition of human recombinant DPP2 using Lys-Ala-pNA as substrate incubated for 15 mins by […].
For series [4], the target named is Dipeptidyl peptidase 8 (Homo sapiens, UniProt Q6V1X1). Kind of series: Inhibition of N-terminal human recombinant DPP8 expressed in Sf9 insect cells using Ala-Pro-paranitroanilide as substrate incubated for 15 mins by […].
Series [5] in a line: Volume of distribution in Wistar rat at 5 mg/kg, iv administered as single dose measured upto 24 hrs by LC/MS-MS analysis. It is filed as ADME, organism-based. The note with it: in vivo.
A short description of series [6]: Kinetic solubility of the compound in phosphate buffer at pH 7.4 at 200 uM incubated for 2 hrs by spectrophotometric analysis. It is filed as physicochemical. The note with it: pH 7.4, 2 h.
Series [7] can be described thus: Oral bioavailability in Wistar rat at 20 mg/kg measured upto 24 hrs by LC/MS-MS analysis. It is filed as ADME, organism-based. The note with it: in vivo.
For series [8], the system named is THP-1. Kind of series: Induction of cell death in human THP-1 cells assessed as increase in LDH release incubated for 24 hrs by CyQuant reagent based analysis. It is filed as functional. The note with it: dose 1-10 µM. On the technique in general: LDH leaks from cells whose membrane has failed.
Series [9] is described as follows: Half life in Wistar rat at 5 mg/kg, iv administered as single dose measured upto 24 hrs by LC/MS-MS analysis. The note with it: in vivo. It is filed as ADME, organism-based.
A short description of series [10]: Toxicity in Wistar rat assessed as change in body weight at 5 mg/kg, iv administered as single dose measured upto 24 hrs. It is filed as organism-based. The note with it: in vivo.
Series [11] can be described thus: Toxicity in Wistar rat assessed as adverse effects at 20 mg/kg, po measured upto 24 hrs. It is filed as organism-based. The note with it: in vivo.
Series [12] in a line: AUC(0 to end) in Wistar rat at 5 mg/kg, iv administered as single dose measured upto 24 hrs by LC/MS-MS analysis. It is filed as ADME, organism-based. Set-up: time < 24 hrs, dose 5 mg/kg, route iv. The note with it: in vivo.
Series [13] in a line: Toxicity in Wistar rat assessed as change in body weight at 20 mg/kg, po measured upto 24 hrs. It is filed as organism-based. The note with it: in vivo.
The target in series [14] is Dipeptidyl peptidase 4 (Homo sapiens, UniProt P27487). Kind of series: Inhibition of human seminal plasma DPP4 using Ala-Pro-paranitroanilide as substrate incubated for 15 mins by […]. It is filed as cell-free.
Series [15] has as its target T1, Prolyl endopeptidase (Homo sapiens, UniProt P48147).
T1 sequence (P48147 whole entry): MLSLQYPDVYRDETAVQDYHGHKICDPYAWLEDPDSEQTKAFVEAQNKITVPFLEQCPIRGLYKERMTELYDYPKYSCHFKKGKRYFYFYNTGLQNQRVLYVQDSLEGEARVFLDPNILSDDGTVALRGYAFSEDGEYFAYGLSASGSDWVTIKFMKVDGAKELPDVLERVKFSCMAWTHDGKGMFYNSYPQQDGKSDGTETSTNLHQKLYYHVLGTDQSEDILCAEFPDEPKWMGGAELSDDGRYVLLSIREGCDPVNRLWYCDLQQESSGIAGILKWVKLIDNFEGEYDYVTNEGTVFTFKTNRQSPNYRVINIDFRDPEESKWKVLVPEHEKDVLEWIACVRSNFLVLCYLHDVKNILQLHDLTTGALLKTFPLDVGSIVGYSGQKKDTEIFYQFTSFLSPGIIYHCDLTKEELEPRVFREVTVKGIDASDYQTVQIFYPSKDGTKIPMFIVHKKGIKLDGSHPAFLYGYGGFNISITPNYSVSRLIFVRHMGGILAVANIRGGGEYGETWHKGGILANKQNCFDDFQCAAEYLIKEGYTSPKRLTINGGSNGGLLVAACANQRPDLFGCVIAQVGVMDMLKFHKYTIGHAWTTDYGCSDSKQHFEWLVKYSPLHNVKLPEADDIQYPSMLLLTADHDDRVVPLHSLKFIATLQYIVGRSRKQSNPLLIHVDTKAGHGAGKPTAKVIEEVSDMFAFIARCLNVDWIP
Kind of series: Inhibition of human recombinant PREP expressed in Escherichia coli BL21(DE3) using N-succinyl-Gly-Pro-AMC as substrate incubated for 15 mins by fluorescence based analysis.

A short description of series [16]: Clearance in Wistar rat at 5 mg/kg, iv administered as single dose measured upto 24 hrs by LC/MS-MS analysis. It is filed as ADME, organism-based. The note with it: in vivo.
Series [17] is described as follows: Toxicity in Wistar rat assessed as adverse effects at 5 mg/kg, iv administered as single dose measured upto 24 hrs. It is filed as organism-based. The note with it: in vivo.

Chain of Dipeptidyl peptidase 9 (Q86TI2 whole entry): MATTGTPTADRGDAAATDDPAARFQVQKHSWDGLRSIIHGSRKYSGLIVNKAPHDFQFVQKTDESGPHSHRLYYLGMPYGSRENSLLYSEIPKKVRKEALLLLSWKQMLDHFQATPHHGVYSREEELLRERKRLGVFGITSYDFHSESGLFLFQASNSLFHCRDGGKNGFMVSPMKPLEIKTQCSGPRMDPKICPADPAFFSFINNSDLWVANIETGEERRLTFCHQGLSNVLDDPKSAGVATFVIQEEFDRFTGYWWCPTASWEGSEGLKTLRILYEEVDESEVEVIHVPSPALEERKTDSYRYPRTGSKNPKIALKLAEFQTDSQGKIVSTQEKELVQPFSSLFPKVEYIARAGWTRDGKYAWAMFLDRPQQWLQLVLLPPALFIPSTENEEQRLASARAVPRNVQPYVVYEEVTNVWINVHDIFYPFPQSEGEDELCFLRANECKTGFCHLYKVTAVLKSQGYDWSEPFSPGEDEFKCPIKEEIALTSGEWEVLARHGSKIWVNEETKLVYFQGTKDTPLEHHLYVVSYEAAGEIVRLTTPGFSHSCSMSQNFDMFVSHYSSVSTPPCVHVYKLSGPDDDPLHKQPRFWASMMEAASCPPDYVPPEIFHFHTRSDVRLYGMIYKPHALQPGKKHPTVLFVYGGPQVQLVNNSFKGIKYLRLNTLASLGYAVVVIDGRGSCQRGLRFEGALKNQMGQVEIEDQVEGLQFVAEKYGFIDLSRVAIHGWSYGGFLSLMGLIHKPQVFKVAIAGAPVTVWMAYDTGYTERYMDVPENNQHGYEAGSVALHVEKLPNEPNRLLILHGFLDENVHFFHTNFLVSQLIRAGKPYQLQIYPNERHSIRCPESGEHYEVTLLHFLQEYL
Chain of Dipeptidyl peptidase 8 (Q6V1X1 whole entry): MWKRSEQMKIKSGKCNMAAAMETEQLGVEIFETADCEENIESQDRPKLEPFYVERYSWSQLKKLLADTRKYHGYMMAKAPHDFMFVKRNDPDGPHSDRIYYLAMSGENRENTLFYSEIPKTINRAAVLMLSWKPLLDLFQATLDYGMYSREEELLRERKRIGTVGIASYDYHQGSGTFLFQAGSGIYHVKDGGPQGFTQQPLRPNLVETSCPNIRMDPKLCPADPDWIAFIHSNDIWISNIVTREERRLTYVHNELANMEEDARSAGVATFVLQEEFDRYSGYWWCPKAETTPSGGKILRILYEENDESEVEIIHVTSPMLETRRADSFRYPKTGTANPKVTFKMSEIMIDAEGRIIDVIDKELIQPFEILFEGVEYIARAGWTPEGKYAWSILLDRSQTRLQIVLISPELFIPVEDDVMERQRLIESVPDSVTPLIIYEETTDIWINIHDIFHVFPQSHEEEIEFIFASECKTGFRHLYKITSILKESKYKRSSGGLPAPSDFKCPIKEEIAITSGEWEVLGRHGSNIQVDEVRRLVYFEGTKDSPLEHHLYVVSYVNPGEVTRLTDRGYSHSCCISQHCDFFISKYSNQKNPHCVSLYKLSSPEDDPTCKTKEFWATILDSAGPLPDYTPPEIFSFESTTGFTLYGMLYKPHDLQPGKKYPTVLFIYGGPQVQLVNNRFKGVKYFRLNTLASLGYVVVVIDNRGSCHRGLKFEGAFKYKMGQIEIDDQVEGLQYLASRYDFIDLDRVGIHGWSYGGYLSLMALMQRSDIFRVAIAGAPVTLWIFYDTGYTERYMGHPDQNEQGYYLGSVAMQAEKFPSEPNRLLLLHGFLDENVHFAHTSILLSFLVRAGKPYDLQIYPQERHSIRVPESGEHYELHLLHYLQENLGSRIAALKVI
Chain of Dipeptidyl peptidase 4 (P27487 whole entry): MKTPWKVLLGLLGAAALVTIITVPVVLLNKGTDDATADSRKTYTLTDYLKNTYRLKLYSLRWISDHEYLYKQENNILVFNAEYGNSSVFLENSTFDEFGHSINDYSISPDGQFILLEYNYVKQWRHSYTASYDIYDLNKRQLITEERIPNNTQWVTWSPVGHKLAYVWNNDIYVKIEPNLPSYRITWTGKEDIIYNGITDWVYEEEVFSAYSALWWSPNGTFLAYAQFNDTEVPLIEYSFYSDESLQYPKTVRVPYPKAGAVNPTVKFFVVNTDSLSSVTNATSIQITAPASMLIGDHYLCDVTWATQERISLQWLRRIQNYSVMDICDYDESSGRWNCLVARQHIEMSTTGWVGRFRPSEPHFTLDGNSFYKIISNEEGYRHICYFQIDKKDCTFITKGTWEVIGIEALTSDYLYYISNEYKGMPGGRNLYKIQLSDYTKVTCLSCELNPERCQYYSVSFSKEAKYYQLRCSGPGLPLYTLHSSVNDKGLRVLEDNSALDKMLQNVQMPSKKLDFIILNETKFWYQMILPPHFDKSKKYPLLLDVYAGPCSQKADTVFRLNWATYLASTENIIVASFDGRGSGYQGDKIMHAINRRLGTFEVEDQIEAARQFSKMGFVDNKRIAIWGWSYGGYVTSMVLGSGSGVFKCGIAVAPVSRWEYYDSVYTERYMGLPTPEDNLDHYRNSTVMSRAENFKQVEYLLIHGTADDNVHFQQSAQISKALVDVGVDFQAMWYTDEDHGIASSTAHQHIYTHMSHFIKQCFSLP

One may read the IC50 as the concentration that gives 50% inhibition. One may read the AUC as concentration integrated over time. Read a high AUC as high exposure. In general, Vd refers to the apparent volume that relates the amount in the body to the concentration in plasma or blood. What is called bioavailability is the share of a dose that reaches the circulation, judged against a reference dose that is usually intravenous. Higher therefore signals good availability. In general, half-life refers to the time needed for the level to fall by half in the phase considered. In general, clearance refers to the volume of plasma or blood freed of the substance per unit of time. On to `CC(C)(C)OC(=O)NC12CC3CC(CC(NCC(=O)N4Cc5cc(F)c(F)cc5C4)(C3)C1)C2`, for which the IC50 in [1] was 3 nM; in series [3], above 5000 nM; in [4], 600 nM; in series [14], above 10000 nM; in series [15], above 10000 nM. Further, the results for the AUC at 24 h in [2] and in series [12] were 63.4 ng·h/mL and 1050 ng·h/mL, respectively. The molecule also gave a Vd in series [5] of 7.1 L/kg. In [6], the Kinetic_solubility entry was “Soluble”. Moreover, in [7], the bioavailability is 2%. Further, the Activity entry in [8] is “Dose-Dependent Effect”; in series [10], “Non-Toxic”; in [11], “Non-Toxic”; in [13], “Non-Toxic”; in series [17] it was “Non-Toxic”. In series [9], this molecule gave a half-life of 43.6 min. For the same molecule, the clearance in series [16] was 90 mL/min/kg.
